In patent US4010264A, “7-[3-Substituted isoxazol-5-yl]-acetamido-cephalosporanic acids and their anti-bacterial use” (Koninklijke Nederlandsche Gist-en Spiritusfabriek N.V., priority 1970, dated 1977):
In brackets after ≈: the same amount, converted by molar mass. Where a name gives a salt, the structure may show the parent alone. Read-outs that look alike come from different tables or passages of the source.

Experiments:
[1] = test system: Bacillus subtilis ATCC 6633; experiment: MIC, agar serial dilution test; assay type: cell-based
[2] = test system: Streptococcus faecalis L 80; experiment: MIC, agar serial dilution test; assay type: cell-based; conditions: Enterococcus faecalis
[3] = test system: Staphylococcus aureus A355 (penicillinase-producing); experiment: MIC, agar serial dilution test; conditions: 24 h
[4] = test system: Streptococcus haemolyticus A266; experiment: MIC, agar serial dilution test; assay type: cell-based
Brucella melitensis A488 = experiment: microbe, parasite or virus in culture; assay type: cell-based; conditions: A488, 24 h
[5] = test system: Klebsiella pneumoniae A809; experiment: MIC, agar serial dilution test; assay type: cell-based
[6] = test system: Staphylococcus aureus A321; experiment: MIC, agar serial dilution test; assay type: cell-based
[7] = test system: Pasteurella multocida A723; experiment: MIC, agar serial dilution test; assay type: cell-based
[8] = test system: Staphylococcus aureus L160a (penicillinase-producing); experiment: MIC, agar serial dilution test; conditions: 24 h
[9] = test system: Staphylococcus aureus A55; experiment: MIC, agar serial dilution test; assay type: cell-based
[10] = test system: Diplococcus pneumoniae L 54; experiment: MIC, agar serial dilution test; assay type: cell-based; conditions: Streptococcus pneumoniae
[11] = ATCC6633, Bacillus subtilis ATCC 6633, 24 hours at 37° C, read-out: MIC
[12] = L80, Streptococcus faecalis L 80, 24 hours at 37° C, read-out: MIC
[13] = Streptococcus haemolyticus A266, 24 hours at 37° C, read-out: MIC
[14] = Klebsiella pneumoniae A809, 24 hours at 37° C, read-out: MIC
[15] = Staphylococcus aureus A321, 24 hours at 37° C, read-out: MIC
[16] = Pasteurella multocida A723, 24 hours at 37° C, read-out: MIC
[17] = Staphylococcus aureus A55, 24 hours at 37° C, read-out: MIC
[18] = L54, Diplococcus pneumoniae L 54, 24 hours at 37° C, read-out: MIC
[19] = Bacillus subtilis, ATCC6633, 24 h
[20] = Klebsiella pneumoniae, A809, 24 h
[21] = Staphylococcus aureus, A321, 24 h
[22] = Pasteurella multocida, A723, 24 h
[23] = Staphylococcus aureus, A55, 24 h

| SMILES | MIC [1, 11] [µg/mL] | MIC [2, 12] [µg/mL] | MIC [3] [µg/mL] | MIC [4, 13] [µg/mL] | MIC (Brucella melitensis A488) [µg/mL] | MIC [5, 14] [µg/mL] | MIC [6, 15] [µg/mL] | MIC [7, 16] [µg/mL] | MIC [8] [µg/mL] | MIC [9, 17] [µg/mL] | MIC [10, 18] [µg/mL] | MIC [1, 19] [µg/mL] | MIC ([2]; L80, 24 h) [µg/mL] | MIC ([4]; Streptococcus, A266, 24 h) [µg/mL] | MIC [5, 20] [µg/mL] | MIC [6, 21] [µg/mL] | MIC [7, 22] [µg/mL] | MIC [9, 23] [µg/mL] | MIC ([10]; L54, 24 h) [µg/mL] |
| --- | --- | --- | --- | --- | --- | --- | --- | --- | --- | --- | --- | --- | --- | --- | --- | --- | --- | --- | --- |
| CCOc1ccc2ccccc2c1C(=O)N[C@@H]1C(=O)N2[C@@H]1SC(C)(C)[C@@H]2C(=O)O [Nafcilline, Nafcillin, reference compound] | 0.5 (≈ 1.21 µM) | 10 (≈ 24.1 µM) | 1 (≈ 2.41 µM) | 0.015 (≈ 0.0362 µM) | 6 (≈ 14.5 µM) | 12.5 (≈ 30.2 µM) | 0.25 (≈ 0.603 µM) | 12.5 (≈ 30.2 µM) | 0.5 (≈ 1.21 µM) | 0.12 (≈ 0.29 µM) | 0.06 (≈ 0.145 µM) |  |  |  |  |  |  |  |  |
| Cc1c(-c2c(Cl)cccc2Cl)noc1CC(=O)NC1C(=O)N2C1SC(C)(C)C2C(=O)O (stereo not drawn) [Example X, Sodium salt of 6-{[3-(2,6-dichloro)phenyl-4-methyl-isoxazol-5-yl]acetamido}penicillanic acid] | 0.005 | 0.25 | 3 | 0.006 | 3 | > 100 | 0.03 | 3 | 0.5 | 0.03 | 0.02 |  |  |  |  |  |  |  |  |
| Cc1cc(C)c(-c2cc(CC(=O)NC3C(=O)N4C3SC(C)(C)C4C(=O)O)on2)c(C)c1 (stereo not drawn) [VI, Sodium salt of 6-{[3-(2,4,6-trimethyl)phenylisoxazol-5-yl]acetamido}penicillanic acid] | 0.03 | 0.25 | 3 | 0.012 | 3 | 100 | 0.06 | 12.5 | 0.5 | 0.06 | 0.03 |  |  |  |  |  |  |  |  |
| Cc1onc(-c2ccccc2Cl)c1C(=O)N[C@@H]1C(=O)N2[C@@H]1SC(C)(C)[C@@H]2C(=O)O [Cloxazilline, Cloxacillin, reference compound] | 0.25 (≈ 0.574 µM) | 25 (≈ 57.4 µM) | 0.5 (≈ 1.15 µM) | 0.25 (≈ 0.574 µM) | 100 (≈ 229 µM) | 6 (≈ 13.8 µM) | 0.06 (≈ 0.138 µM) | 6 (≈ 13.8 µM) | 1 (≈ 2.29 µM) | 0.12 (≈ 0.275 µM) | 1.5 (≈ 3.44 µM) |  |  |  |  |  |  |  |  |
| CC1(C)SC2C(NC(=O)Cc3cc(-c4ccc([N+](=O)[O-])cc4)no3)C(=O)N2C1C(=O)O (stereo not drawn) [XIX, Sodium salt of 6-{[3-p-nitrophenyl-isoxazol-5-yl]acetamido}penicillanic acid] | < 0.015 | 1 | 1 | 1.5 | 0.12 | 100 | 0.03 | 1 | 3 | 0.03 | 0.03 |  |  |  |  |  |  |  |  |
| CC1=C(C(=O)O)N2C(=O)[C@@H](NC(=O)[C@H](N)c3ccccc3)[C@H]2SC1 [Cephalexine, Cephalexin, reference compound] |  |  | 12.5 (≈ 36 µM) |  | 6 (≈ 17.3 µM) |  |  |  | 12.5 (≈ 36 µM) |  |  | 0.5 (≈ 1.44 µM) | 100 (≈ 288 µM) | 0.25 (≈ 0.72 µM) | 3 (≈ 8.64 µM) | 1.5 (≈ 4.32 µM) | 3 (≈ 8.64 µM) | 3 (≈ 8.64 µM) | 3 (≈ 8.64 µM) |
| CC1(C)SC2C(NC(=O)Cc3onc(-c4c(Cl)cccc4Cl)c3C(N)=O)C(=O)N2C1C(=O)O (stereo not drawn) [XIV, 6-{[3-(2,6-dichloro)phenyl-4-carbamyl-isoxazol-5-yl]acetamido} penicillanic acid] | 3 (≈ 5.84 µM) | 50 (≈ 97.4 µM) | > 100 | 1.5 (≈ 2.92 µM) | 50 (≈ 97.4 µM) | > 100 | 12.5 (≈ 24.3 µM) | 50 (≈ 97.4 µM) | > 100 | 12.5 (≈ 24.3 µM) | 6 (≈ 11.7 µM) |  |  |  |  |  |  |  |  |
| CC1=C(C(=O)O)N2C(=O)C(NC(=O)Cc3onc(-c4c(Cl)cccc4Cl)c3C)C2SC1 (stereo not drawn) [VIII, 7-{[3-(2,6-dichloro)phenyl-4-methyl-isoxazol-5-yl]acetamidodesacetoxycephalosporanic}acid] | 0.25 (≈ 0.518 µM) | 100 (≈ 207 µM) | 3 (≈ 6.22 µM) | 0.25 (≈ 0.518 µM) | 12.5 (≈ 25.9 µM) | > 100 | 0.5 (≈ 1.04 µM) | 100 (≈ 207 µM) | 3 (≈ 6.22 µM) | 1.5 (≈ 3.11 µM) | 1 (≈ 2.07 µM) |  |  |  |  |  |  |  |  |
| CC(=O)OCC1=C(C(=O)[O-])N2C(=O)C(NC(=O)Cc3onc(C)c3Cl)[C@H]2SC1.[Na+] (stereo partly drawn) [XXXV, Sodium 7{[3-methyl-4-chloroisoxazole-5 yl]acetamido}-3-acetoxymethyl-3-cephem-4carboxylate] |  |  | 0.5 |  | 0.06 |  |  |  | 0.5 |  |  | 0.06 | 25 | 0.06 | 1.5 | 0.25 | 0.75 | 0.25 | 1 |
| CC(=O)OCC1=C(C(=O)O)N2C(=O)C(NC(=O)Cc3onc(-c4c(C)cc(C)cc4C)c3C)C2SC1 (stereo not drawn) [XII, Sodium salt of 7-{[3-(2,4,6-trimethyl)phenyl-4-methyl-isoxazol-5-yl]acetamido}cephalosporanic acid] | 0.06 | 6 | 0.25 | 0.06 | 50 | > 100 | 0.12 | 100 | 0.25 | 0.25 | 0.06 |  |  |  |  |  |  |  |  |
| CC(=O)OCC1=C(C(=O)O)N2C(=O)C(NC(=O)Cc3cc(C(C)(C)C)no3)C2SC1 (stereo not drawn) [XXXIV, sodium 7-[3-(t-butyl)isoxazole-5-ylacetamido]-3-acetoxymethyl 3-cephem-4-carboxylate] | 0.75 | 12.5 | 1.5 |  |  | 12.5 | 1.5 | 3 |  |  | 0.25 |  |  |  |  |  |  |  |  |
| CC1(C)SC2C(NC(=O)C(C(N)=O)c3cc(-c4c(Cl)cccc4Cl)no3)C(=O)N2C1C(=O)O (stereo not drawn) [Example XX, 6-{α-carbamyl-[3-(2,6-dichloro)phenyl-isoxazol-5-yl]acetamido} penicillanic acid] | 0.25 (≈ 0.487 µM) | 0.5 (≈ 0.974 µM) | 3 (≈ 5.84 µM) | 0.03 (≈ 0.0584 µM) | 3 (≈ 5.84 µM) | > 100 | 0.25 (≈ 0.487 µM) | 6 (≈ 11.7 µM) | 3 (≈ 5.84 µM) | 0.25 (≈ 0.487 µM) | 0.06 (≈ 0.117 µM) |  |  |  |  |  |  |  |  |
| CC1(C)SC2C(NC(=O)Cc3onc(-c4c(Cl)cccc4Cl)c3C#N)C(=O)N2C1C(=O)O (stereo not drawn) [Example XV, Sodium salt of 6-{[3-(2,6-dichloro)phenyl-4-cyano-isoxazol-5-yl]acetamido}penicillanic acid] | 0.25 | 0.5 | 12.5 | 0.06 | 6 | > 100 | 1 | 12.5 | 12.5 | 0.5 | 0.03 |  |  |  |  |  |  |  |  |
| CC1(C)SC2C(NC(=O)C(NC(=O)OCc3ccc([N+](=O)[O-])cc3)c3cc(-c4c(Cl)cccc4Cl)no3)C(=O)N2C1C(=O)O (stereo not drawn) [Example XVII, 6-{-α-p-nitro-benzyloxycarbonylamino-[3-(2,6-dichloro)phenylisoxazol-5-yl]acetamido}penicillanic acid] | 0.5 (≈ 0.752 µM) | 3 (≈ 4.51 µM) | 12.5 (≈ 18.8 µM) | 0.06 (≈ 0.0903 µM) | 25 (≈ 37.6 µM) | > 100 | 1 (≈ 1.5 µM) | 50 (≈ 75.2 µM) | 6 (≈ 9.03 µM) | 1 (≈ 1.5 µM) | 0.5 (≈ 0.752 µM) |  |  |  |  |  |  |  |  |
